Test results from patent US20050234046A1 (Kalypsys, Inc., priority 2004, published 2005).
pEC50: −log10 of the molar value.

Key:
Experiment in all cases: Transient transfection (transactivation) assay in CV-1 cells, GAL4-PPAR chimera, luciferase reporter
Format in all cases: cell-based
PPAR alpha = target: T1, PPAR alpha (Homo sapiens, UniProt Q07869)
T1 construct: expressed in transfected cells; host or cells: CV-1 cells
T1 sequence (Q07869 239-466 limits assumed): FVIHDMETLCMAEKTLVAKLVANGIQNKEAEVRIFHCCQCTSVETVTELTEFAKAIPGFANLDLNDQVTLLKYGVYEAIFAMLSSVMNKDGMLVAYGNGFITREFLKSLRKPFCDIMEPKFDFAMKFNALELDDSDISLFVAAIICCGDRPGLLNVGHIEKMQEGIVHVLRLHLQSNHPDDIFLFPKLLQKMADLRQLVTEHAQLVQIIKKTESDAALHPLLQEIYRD
Method in brief: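 GAL4 DNA-binding domain fused to PPAR ligand binding domain, co-transfected into CV-1 cells with a luciferase reporter carrying four or five GAL4 sites. Replated cells in phenol-red free DME with 5% delipidated calf serum were treated with compound or 1% DMSO for 20-24 hours; luciferase read for EC50 and efficacy.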

PPAR delta = target: T2, PPAR delta (Homo sapiens, UniProt Q03181)
T2 construct: expressed in transfected cells; host or cells: CV-1 cells
T2 sequence (Q03181 211-439 limits assumed): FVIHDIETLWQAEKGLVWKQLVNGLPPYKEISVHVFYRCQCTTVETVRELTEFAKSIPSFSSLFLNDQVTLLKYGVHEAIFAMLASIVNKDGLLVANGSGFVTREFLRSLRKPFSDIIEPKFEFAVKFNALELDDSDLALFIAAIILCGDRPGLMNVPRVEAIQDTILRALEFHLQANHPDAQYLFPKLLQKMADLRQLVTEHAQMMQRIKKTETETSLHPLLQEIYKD

PPAR gamma = target: T3, PPAR gamma (Homo sapiens, UniProt P37231)
T3 construct: expressed in transfected cells; host or cells: CV-1 cells
T3 sequence (P37231 238-503 limits assumed): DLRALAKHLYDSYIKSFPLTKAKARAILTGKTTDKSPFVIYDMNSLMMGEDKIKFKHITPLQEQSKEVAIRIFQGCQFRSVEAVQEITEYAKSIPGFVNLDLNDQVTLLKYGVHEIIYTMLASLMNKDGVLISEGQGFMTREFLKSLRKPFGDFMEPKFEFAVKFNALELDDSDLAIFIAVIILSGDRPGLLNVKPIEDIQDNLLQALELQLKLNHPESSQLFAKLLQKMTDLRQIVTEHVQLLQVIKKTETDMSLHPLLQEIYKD

Compound	pEC50 (PPAR alpha)	pEC50 (PPAR delta)	pEC50 (PPAR gamma)	PPAR gamma EC50 (PPAR gamma)
Cc1cc(CC(=O)O)cc(S(=O)(=O)N2CCN(c3cccc(Cl)c3)CC2)c1 [Example 171, {3-[4-(3-Chloro-phenyl)-piperazine-1-sulfonyl]-5-methyl-phenyl}-acetic acid]	< 4.00	4.00 to 5.30	4.00 to 5.30	
Cc1cc(CC(=O)O)cc(S(=O)(=O)N2C[C@@H](C)N(c3ccc(C(F)(F)F)cn3)[C@@H](C)C2)c1 [Example 228, 2-(3-(-3,5-Dimethyl-4-(5-(trifluoromethyl)pyridine-2-yl)piperazin-1-ylsulfonyl)-5-methylphenyl)acetic acid]	4.00 to 5.30	> 5.30	> 5.30	
O=C(O)Cc1cc(COCCO)cc(S(=O)(=O)N2CCN(c3ccc(C(F)(F)F)cc3)CC2)c1 [Example 91, {3-(2-Hydroxy-ethoxymethyl)-5-[4-(4-trifluoromethyl-phenyl)-piperazine-1-sulfonyl]-phenyl}-acetic acid]	< 4.00	< 4.00	< 4.00	
N#Cc1ccc(N2CCN(S(=O)(=O)c3cccc(CC(=O)O)c3)CC2)cc1 [Example 122, {3-[4-(4-Cyano-phenyl)-piperazine-1-sulfonyl]-phenyl}-acetic acid]	< 4.00	4.00 to 5.30	< 4.00	
Cc1ccc(S(=O)(=O)N2CCN(c3ccc(C(F)(F)F)c(F)c3)CC2)cc1CC(=O)O [Example 34, {5-[4-(3-Fluoro-4-trifluoromethyl-phenyl)-piperazine-1-sulfonyl]-2-methyl-phenyl}-acetic acid]	> 5.30	> 5.30		B/C
Cc1ccc(CC(=O)O)cc1S(=O)(=O)N1CCN(c2ccccc2C#N)CC1 [Example 162, {3-[4-(2-Cyano-phenyl)-piperazine-1-sulfonyl]-4-methyl-phenyl}-acetic acid]	< 4.00	< 4.00	< 4.00	
Cc1cc(CC(=O)O)cc(S(=O)(=O)N2C3CCC2CN(c2ccc(OC(F)(F)F)cc2)C3)c1 [Example 233, {3-Methyl-5-[3-(4-trifluoromethoxy-phenyl)-3,8-diaza-bicyclo[3.2.1]octane-8-sulfonyl]-phenyl}-acetic acid]	4.00 to 5.30	> 5.30	4.00 to 5.30	
O=C(O)Cc1cccc(S(=O)(=O)N2CCN(C(c3ccc(F)cc3)c3ccc(F)cc3)CC2)c1 [Example 138, (3-{4-[Bis-(4-fluoro-phenyl)-methyl]-piperazine-1-sulfonyl}-phenyl)-acetic acid]	< 4.00	< 4.00	4.00 to 5.30	
COc1ccc(S(=O)(=O)N2[C@H](C)CN(c3ccc(C(F)(F)F)cn3)C[C@@H]2C)cc1CC(=O)O [Example 78, {5-[2,6-Dimethyl-4-(5-trifluoromethyl-pyridin-2-yl)-piperazine-1-sulfonyl]-2-methoxy-phenyl}-acetic acid]	< 4.00	> 5.30	< 4.00	
Cc1ccc(N2CCN(S(=O)(=O)c3cccc(CC(=O)O)c3)CC2)c(C)c1 [Example 117, {3-[4-(2,4-Dimethyl-phenyl)-piperazine-1-sulfonyl]-phenyl}-acetic acid]	< 4.00	> 5.30	4.00 to 5.30	
Cc1ccc(CC(=O)O)cc1S(=O)(=O)N1CCC(c2ccc(Cl)cc2)CC1 [Example 1]	< 4.00	> 5.30	< 4.00	
Cc1ccc(CC(=O)O)cc1S(=O)(=O)N1CCN(c2ccc(C(F)(F)F)cc2[N+](=O)[O-])CC1 [Example 158, {4-Methyl-3-[4-(2-nitro-4-trifluoromethyl-phenyl)-piperazine-1-sulfonyl]-phenyl}-acetic acid]	< 4.00	4.00 to 5.30	< 4.00	
Cc1ccc(CC(=O)O)cc1S(=O)(=O)N1CCN(CCc2ccccc2)CC1 [Example 152, [4-Methyl-3-(4-phenethyl-piperazine-1-sulfonyl)-phenyl]-acetic acid]	< 4.00	< 4.00	4.00 to 5.30	
